Measurements published in patent publication US10597388B2, “Pyridazinone herbicides” (FMC CORPORATION, priority 2014, dated 2020).

What was measured:
Assay in all cases: Test D controlled growth environment herbicide test, pre- and postemergence
Format in all cases: in vivo
[1] = tested on: chickweed (common chickweed, Stellaria media)
How it was run: (§1)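 Rating is visual, 0–100 scale (100 = complete control), made against untreated plants 14–21 d after treatment in controlled growth conditions. Postemergence sprays went onto 1- to 4-leaf plants in peat medium; preemergence sprays onto silt loam after sowing; formulation included a surfactant.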

[2] = tested on: radish, wild (wild radish, Raphanus raphanistrum)
How it was run: as §1

[3] = tested on: field poppy (Papaver rhoeas)
How it was run: as §1

[4] = tested on: barley, spring (spring barley, Hordeum vulgare)
How it was run: as §1

[5] = tested on: wheat, spring (spring wheat, Triticum aestivum)
How it was run: as §1

[6] = tested on: canarygrass (Phalaris minor)
How it was run: as §1

[7] = tested on: Russian thistle (Salsola kali)
How it was run: as §1

[8] = tested on: lambsquarters (Chenopodium album)
How it was run: as §1

[9] = tested on: field violet (Viola arvensis)
How it was run: as §1

[10] = tested on: bluegrass (annual bluegrass, Poa annua)
How it was run: as §1

[11] = tested on: oat, wild (wild oat, Avena fatua)
How it was run: as §1

[12] = tested on: wheat, winter (winter wheat, Triticum aestivum)
How it was run: as §1

[13] = tested on: barley, winter (winter barley, Hordeum vulgare)
How it was run: as §1

[14] = Postemergence, 31 g ai/ha, scale 0 to 100 (0 no effect, 100 complete control)
[15] = Postemergence, 125 g ai/ha, visual rating on scale 0 (no effect) to 100 (complete control), 14 to 21 d
[16] = Postemergence, 250 g ai/ha, scale 0 to 100 (0 no effect, 100 complete control)
[17] = Preemergence, 62 g ai/ha, scale 0 to 100 (0 no effect, 100 complete control)
[18] = Preemergence, 125 g ai/ha, scale 0 to 100 (0 no effect, 100 complete control)
[19] = Preemergence, 250 g ai/ha, scale 0 to 100, 0 no effect, 100 complete control
[20] = postemergence, 62 g ai/ha, scale 0 to 100, 0 no effect, 100 complete control

Question: Which results are given for `Cc1nn(C)c(=O)c(-c2ccc(F)c3ccccc23)c1O` [Compound 41]?
Answer: Chickweed plant response rating [1, 14]: 98; Plant response rating, Chickweed [1, 15]: 95; Plant response rating, Chickweed [1, 16]: 100; Plant response rating (scale of 0 to 100), Chickweed ([1]; Preemergence, 31 g ai/ha): 90; Plant response rating, Chickweed [1, 17]: 95; Plant response rating, Chickweed [1, 18]: 95; Plant response rating, Chickweed [1, 19]: 95; Plant response rating, Chickweed [1, 20]: 98; Radish, Wild plant response rating [2, 14]: 90; Plant response rating, Radish, Wild [2, 15]: 90; Plant response rating, Radish, Wild [2, 16]: 95; Plant response rating (scale of 0 to 100), Radish, Wild ([2]; Preemergence, 31 g ai/ha): 25; Plant response rating, Radish, Wild [2, 17]: 85; Plant response rating, Radish, Wild [2, 18]: 95; Plant response rating, Radish, Wild [2, 19]: 100; Plant response rating, Radish, Wild [2, 20]: 80; Field Poppy plant response rating [3, 14]: 55; Plant response rating, Field Poppy [3, 15]: 75; Plant response rating, Field Poppy [3, 16]: 95; Plant response rating (scale of 0 to 100), Field Poppy ([3]; Preemergence, 31 g ai/ha): 95; Plant response rating, Field Poppy [3, 17]: 95; Plant response rating, Field Poppy [3, 19]: 95; Plant response rating, Field Poppy [3, 20]: 80; Plant response rating, Barley, Spring [4, 14]: 0; Plant response rating, Barley, Spring [4, 15]: 10; Plant response rating, Barley, Spring [4, 16]: 20; Plant response rating (scale of 0 to 100), Barley, Spring ([4]; Preemergence, 31 g ai/ha): 0; Plant response rating, Barley, Spring [4, 17]: 0; Plant response rating, Barley, Spring [4, 18]: 30; Barley, Spring plant response rating [4, 19]: 60; Plant response rating, Barley, Spring [4, 20]: 5; Wheat, Spring plant response rating [5, 14]: 15; Plant response rating, Wheat, Spring [5, 15]: 30; Plant response rating, Wheat, Spring [5, 16]: 40; Plant response rating (scale of 0 to 100), Wheat, Spring ([5]; Preemergence, 31 g ai/ha): 40; Plant response rating, Wheat, Spring [5, 17]: 55; Plant response rating, Wheat, Spring [5, 18]: 70; Plant response rating, Wheat, Spring [5, 19]: 85; Plant response rating, Wheat, Spring [5, 20]: 20; Canarygrass plant response rating [6, 14]: 55; Plant response rating, Canarygrass [6, 15]: 80; Plant response rating, Canarygrass [6, 16]: 80; Plant response rating (scale of 0 to 100), Canarygrass ([6]; Preemergence, 31 g ai/ha): 90; Plant response rating, Canarygrass [6, 17]: 90; Plant response rating, Canarygrass [6, 18]: 90; Plant response rating, Canarygrass [6, 19]: 95; Plant response rating, Canarygrass [6, 20]: 70; Russian Thistle plant response rating [7, 14]: 70; Plant response rating, Russian Thistle [7, 15]: 75; Plant response rating, Russian Thistle [7, 16]: 75; Plant response rating (scale of 0 to 100), Russian Thistle ([7]; Preemergence, 31 g ai/ha): 25; Plant response rating, Russian Thistle [7, 17]: 20; Plant response rating, Russian Thistle [7, 18]: 40; Plant response rating, Russian Thistle [7, 19]: 70; Plant response rating, Russian Thistle [7, 20]: 70; Lambsquarters plant response rating [8, 14]: 70; Plant response rating, Lambsquarters [8, 15]: 75; Plant response rating, Lambsquarters [8, 16]: 85; Plant response rating (scale of 0 to 100), Lambsquarters ([8]; Preemergence, 31 g ai/ha): 25; Plant response rating, Lambsquarters [8, 17]: 100; Plant response rating, Lambsquarters [8, 18]: 100; Plant response rating, Lambsquarters [8, 19]: 100; Plant response rating, Lambsquarters [8, 20]: 65; Field Violet plant response rating [9, 14]: 100; Plant response rating, Field Violet [9, 15]: 90; Plant response rating, Field Violet [9, 16]: 100; Plant response rating (scale of 0 to 100), Field Violet ([9]; Preemergence, 31 g ai/ha): 95; Plant response rating, Field Violet [9, 17]: 90; Plant response rating, Field Violet [9, 18]: 100; Plant response rating, Field Violet [9, 19]: 100; Plant response rating, Field Violet [9, 20]: 90; Bluegrass plant response rating [10, 14]: 15; Plant response rating, Bluegrass [10, 15]: 25; Plant response rating, Bluegrass [10, 16]: 35; Plant response rating (scale of 0 to 100), Bluegrass ([10]; Preemergence, 31 g ai/ha): 70; Plant response rating, Bluegrass [10, 17]: 75; Plant response rating, Bluegrass [10, 18]: 80; Bluegrass plant response rating [10, 19]: 90; Plant response rating, Bluegrass [10, 20]: 30; Oat, Wild plant response rating [11, 14]: 70; Plant response rating, Oat, Wild [11, 15]: 85; Plant response rating, Oat, Wild [11, 16]: 85; Plant response rating (scale of 0 to 100), Oat, Wild ([11]; Preemergence, 31 g ai/ha): 85; Plant response rating, Oat, Wild [11, 17]: 90; Plant response rating, Oat, Wild [11, 18]: 90; Plant response rating, Oat, Wild [11, 19]: 95; Plant response rating, Oat, Wild [11, 20]: 80; Wheat, Winter plant response rating [12, 14]: 10; Plant response rating, Wheat, Winter [12, 15]: 25; Plant response rating, Wheat, Winter [12, 16]: 35; Plant response rating (scale of 0 to 100), Wheat, Winter ([12]; Preemergence, 31 g ai/ha): 10; Plant response rating, Wheat, Winter [12, 17]: 20; Plant response rating, Wheat, Winter [12, 18]: 45; Plant response rating, Wheat, Winter [12, 19]: 75; Plant response rating, Wheat, Winter [12, 20]: 20; Plant response rating, Barley, Winter [13, 14]: 0; Plant response rating, Barley, Winter [13, 15]: 5; Plant response rating, Barley, Winter [13, 16]: 35; Plant response rating (scale of 0 to 100), Barley, Winter ([13]; Preemergence, 31 g ai/ha): 0; Plant response rating, Barley, Winter [13, 17]: 20; Plant response rating, Barley, Winter [13, 18]: 25; Barley, Winter plant response rating [13, 19]: 30; Plant response rating, Barley, Winter [13, 20]: 5
